Numbers after ± are expanded uncertainties.
Experiments:
[1] = Molar enthalpy of transition or fusion

| Compound | Molar enthalpy of transition or fusion ([1]; Crystal 1) | Molar enthalpy of transition or fusion ([1]; Crystal 2) | Triple point temperature (Crystal 1) | Triple point temperature (Crystal 2) | Molar enthalpy of transition or fusion ([1]; Crystal) | Triple point temperature (Crystal) |
| --- | --- | --- | --- | --- | --- | --- |
| CC12CC3CC(C1)CC(C)(C3)C2 [1,3-dimethyladamantane] | 1.54 ± 0.041 kJ/mol | 9.31 ± 0.03 kJ/mol | 247.79 ± 0.16 K | 223.38 ± 0.16 K | – | – |
| CCC12CC3CC(CC(C3)C1)C2 [1-ethyladamantane] | – | – | – | – | 11.28 ± 0.05 kJ/mol | 225.56 ± 0.16 K |

Reference: the NIST ThermoML archive (doi:10.1016/j.jct.2004.06.009)
